From article PMC4882237 (Journal of medicinal chemistry, 2016)
Entries after “also recorded” stand apart in the source; their conditions may differ.

Experiments:
cytochromes P450 (CYPs) = experiment: Inhibition of human cytochromes P450, overall; conditions: result in words
Caco-2 = Caco-2 permeability; format: in vitro ADME; conditions: result in words
[1] = Metabolic stability in human liver microsomes; format: in vitro ADME

## CNCCCc1cncc(CCc2cc(C)cc(N)n2)c1 [Compound 14j, 4-Methyl-6-(2-(5-(3-(methylamino)propyl)pyridin-3-yl)ethyl)pyridin-2-amine]
Cytochromes P450 (CYPs)
  binding to / inhibition of cytochromes P450 (CYPs): minimal; also recorded: very poor
Caco-2
  Caco-2 permeability: little to no; also recorded: little or no
[1]; 1 μM concentration
  half-life in human liver microsomes: > 1 h
[1]; for at least 60 min, result in words
  human microsome CYP metabolism: little or no
[1]; result in words
  metabolic stability in human liver microsomes: good
